Experimental findings from ChEMBL document CHEMBL1201862, “PubChem BioAssay data set” (2004) are described below.

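In this assay, cells in 96-well plates receive the compound at five concentrations for 48 hours. Endpoints are linearly interpolated between the surrounding concentrations. GI50 = concentration required for 50% inhibition of growth.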 The source made the active and inactive calls. Cut-off read from the data, not from the text of the source: active = GI50 up to about 1.1 µM and inactive = higher.

Some test systems named below: MDA-MB-231; NCI/ADR-RES; MOLT-4; TK-10; HT-29; MDA-MB-435; SK-MEL-28; OVCAR-5; EKVX; LOX IMVI; UO-31; MCF7; SNB-19; OVCAR-3; Malme-3M; A498; CAKI-1; HL-60; NCI-H226; T47D.
What all share (experiment): inhibition of tumour cell growth, NCI panel, 48 h

As for `CCc1n[nH]c(=O)n1NC(=O)c1ccccc1C(=O)O`, the GI50 in the assay with MDA-MB-231, in the assay with NCI/ADR-RES, in the assay with MOLT-4, with TK-10, with HT-29 and in the assay on MDA-MB-435 was > 100 µM (inactive) throughout. The GI50 in the assay on SK-MEL-28, in the assay on OVCAR-5, with EKVX, in the assay with LOX IMVI, in the assay on UO-31 and in the assay on MCF7 was > 100 µM (inactive) each time. Besides, the GI50 with SNB-19 and with OVCAR-3 was > 100 µM (inactive) throughout.
For the compound `O=C(Nc1ccc([As](=O)(O)O)cc1)Nc1cccc(Cl)c1Cl`, the GI50 was > 100 µM (inactive) with Malme-3M; 23.3 µM (inactive) in the assay with MDA-MB-231; > 100 µM (inactive) with A498; > 100 µM (inactive) with NCI/ADR-RES; 89.1 µM (inactive) with TK-10; > 100 µM (inactive) with HT-29. Moreover, the GI50 in the assay on MDA-MB-435 is > 100 µM (inactive); in the assay with SK-MEL-28, > 100 µM (inactive); with OVCAR-5 it was > 100 µM (inactive); in the assay with EKVX, 79.8 µM (inactive); with LOX IMVI, > 100 µM (inactive); in the assay with UO-31, 40.6 µM (inactive). For the same compound, the GI50 with CAKI-1 is > 100 µM (inactive); in the assay on MCF7, > 100 µM (inactive); in the assay with HL-60, > 100 µM (inactive); with SNB-19, 86.1 µM (inactive); with NCI-H226 it was > 100 µM (inactive); in the assay on OVCAR-3, > 100 µM (inactive).
For the compound `O=C(OC1C#CCSCC#C/C=C\1)c1cnc2ccccc2n1` (stereo unspecified), the GI50 with Malme-3M was > 100 µM (inactive); in the assay on MDA-MB-231 it was > 100 µM (inactive); with A498, 40 µM (inactive); in the assay with NCI/ADR-RES, 0.805 µM (active); in the assay on TK-10, > 100 µM (inactive); in the assay with HT-29, > 100 µM (inactive). Besides, the GI50 in the assay on MDA-MB-435, in the assay on SK-MEL-28, with OVCAR-5, with EKVX, in the assay on LOX IMVI and in the assay with UO-31 was > 100 µM (inactive) in each case. For the same compound, the GI50 in the assay with MCF7 was > 100 µM (inactive); in the assay on HL-60, 30.6 µM (inactive); in the assay on SNB-19, > 100 µM (inactive); in the assay on NCI-H226, 79.4 µM (inactive); in the assay with OVCAR-3, > 100 µM (inactive).
On to `CCOC(=N)CC(=O)Nc1cccc(C)c1C`, for which the GI50 in the assay with Malme-3M was > 100 µM (inactive); in the assay with A498, > 100 µM (inactive); with MOLT-4 it was 2.77 µM (inactive); in the assay with TK-10, > 100 µM (inactive); in the assay with HT-29, > 100 µM (inactive); with SK-MEL-28, > 100 µM (inactive). Besides, the GI50 with OVCAR-5, with EKVX, in the assay on LOX IMVI, with UO-31, with CAKI-1 and with HL-60 was > 100 µM (inactive) each time. Besides, the GI50 in the assay on SNB-19, in the assay on NCI-H226 and in the assay on OVCAR-3 was > 100 µM (inactive) throughout.
Regarding `CCCCCCCCCCCCCCCC(=O)N[C@H]1CCc2cc(OC)c(OC)c(OC)c2-c2ccc(SC)c(=O)cc21`, the GI50 is 0.762 µM (active) in the assay on Malme-3M; 0.692 µM (active) with A498; 1.23 µM (inactive) in the assay with MOLT-4; 0.492 µM (active) with TK-10; 0.253 µM (active) in the assay on HT-29; 0.782 µM (active) with SK-MEL-28. In addition, the GI50 in the assay on OVCAR-5 was 15.2 µM (inactive); in the assay with EKVX it was 0.454 µM (active); in the assay with LOX IMVI, 2.45 µM (inactive); in the assay with UO-31, 3.52 µM (inactive); in the assay with CAKI-1 it was 21.1 µM (inactive); in the assay on HL-60 it was 0.279 µM (active). Besides, the GI50 in the assay with SNB-19 is 0.973 µM (active); with NCI-H226, 0.196 µM (active); in the assay on OVCAR-3, 0.225 µM (active).
For `COc1ccccc1NC(=O)C1=C(C)NC(C)=C(C(=O)Nc2ccccc2OC)C1c1ccccc1Cl`, the GI50 with Malme-3M is > 100 µM (inactive); in the assay with A498, > 100 µM (inactive); in the assay with MOLT-4, 27.2 µM (inactive); in the assay with TK-10 it was > 100 µM (inactive); in the assay with HT-29, 64.1 µM (inactive); in the assay with SK-MEL-28, > 100 µM (inactive). For the same compound, the GI50 in the assay on OVCAR-5 was > 100 µM (inactive); in the assay on EKVX it was 53.5 µM (inactive); with LOX IMVI, > 100 µM (inactive); in the assay with UO-31, 28.5 µM (inactive); with CAKI-1 it was > 100 µM (inactive); in the assay on HL-60, 53.6 µM (inactive). The GI50 with SNB-19, in the assay with NCI-H226 and in the assay with OVCAR-3 was > 100 µM (inactive) throughout.
Consider `COC(=O)[C@@H]1C[C@@H]2c3ccccc3N(S(=O)(=O)c3ccccc3)[C@@H]2N1C(=O)OC`, for which the GI50 with Malme-3M, in the assay with MDA-MB-231, with NCI/ADR-RES, in the assay with MOLT-4, in the assay with TK-10 and with HT-29 was > 100 µM (inactive) in each case. Also, the GI50 is > 100 µM (inactive) in the assay on MDA-MB-435; > 100 µM (inactive) with SK-MEL-28; 44 µM (inactive) with OVCAR-5; > 100 µM (inactive) in the assay with EKVX; > 100 µM (inactive) in the assay with LOX IMVI; > 100 µM (inactive) in the assay on UO-31. Besides, the GI50 in the assay with CAKI-1, in the assay on MCF7, in the assay with HL-60, with SNB-19, in the assay on NCI-H226 and in the assay on OVCAR-3 was > 100 µM (inactive) each time.
Regarding `CC(=O)Nc1ccc(SC#N)c2c(NC(C)=O)cccc12`, the GI50 was > 100 µM (inactive) in the assay on Malme-3M; > 100 µM (inactive) in the assay on A498; 28.7 µM (inactive) in the assay with MOLT-4; > 100 µM (inactive) with TK-10; > 100 µM (inactive) with HT-29; 84.3 µM (inactive) in the assay on SK-MEL-28. Also, the GI50 with OVCAR-5 was > 100 µM (inactive); in the assay on EKVX, > 100 µM (inactive); with LOX IMVI it was 56.4 µM (inactive); with UO-31, > 95.5 µM (inactive); with CAKI-1, > 65 µM (inactive); in the assay on HL-60 it was 24.1 µM (inactive). Moreover, the results for the GI50 with SNB-19, with NCI-H226 and in the assay with OVCAR-3 were > 100 µM (inactive), > 100 µM (inactive) and 89.9 µM (inactive), respectively.
Take `COc1cc(S(=O)(=O)Nc2ccc(-c3csc(N4C(=O)C(C)SC4c4ccccc4O)n3)cc2)ccc1Cl` (stereo unspecified): the GI50 with Malme-3M is 17.9 µM (inactive); in the assay with A498, > 100 µM (inactive); in the assay on T47D, 13.3 µM (inactive); in the assay on NCI/ADR-RES, > 100 µM (inactive); with MOLT-4 it was 27.1 µM (inactive); in the assay with HT-29 it was 56.9 µM (inactive). The GI50 with MDA-MB-435 was 37.8 µM (inactive); with SK-MEL-28 it was 16.1 µM (inactive); in the assay on OVCAR-5, 95.1 µM (inactive); in the assay on EKVX, 28.8 µM (inactive); in the assay with LOX IMVI, 29.9 µM (inactive); in the assay with UO-31, 38.6 µM (inactive). In addition, the GI50 is 85.9 µM (inactive) in the assay with CAKI-1; 35.2 µM (inactive) in the assay with MCF7; 27.3 µM (inactive) in the assay with HL-60; > 100 µM (inactive) in the assay with SNB-19; 28.6 µM (inactive) with NCI-H226; 69.5 µM (inactive) in the assay on OVCAR-3.
On to `Cc1ccc(C(=O)N2c3ccccc3N(C)n3cccc3C2CC(=O)O)cc1` (stereo unspecified), for which the GI50 in the assay with Malme-3M, in the assay on A498, in the assay with MOLT-4, in the assay on TK-10, with HT-29 and in the assay with SK-MEL-28 was > 100 µM (inactive) in each case. Moreover, the GI50 in the assay with OVCAR-5, in the assay on EKVX, in the assay with LOX IMVI, in the assay on UO-31, in the assay on CAKI-1 and with HL-60 was > 100 µM (inactive) in each case. For the same compound, the GI50 with SNB-19, with NCI-H226 and with OVCAR-3 was > 100 µM (inactive) throughout.
As to `CCN(CC)CCCC(C)Nc1c2ccc(Cl)cc2nc2cc(Cl)ccc12` (stereo unspecified), the GI50 was 12.2 µM (inactive) in the assay on Malme-3M; 8.67 µM (inactive) in the assay with A498; 3.44 µM (inactive) in the assay with NCI/ADR-RES; 1.98 µM (inactive) in the assay on MOLT-4; 2.47 µM (inactive) with HT-29; 5.6 µM (inactive) with SK-MEL-28. Further, the GI50 in the assay with OVCAR-5 was 6.7 µM (inactive); in the assay on EKVX, 9.73 µM (inactive); in the assay on LOX IMVI, 2.64 µM (inactive); in the assay with UO-31, 3.57 µM (inactive); in the assay on CAKI-1, 3.22 µM (inactive); with MCF7, 3.13 µM (inactive). For the same compound, the GI50 in the assay with HL-60 is 1.91 µM (inactive); in the assay on SNB-19, 17 µM (inactive); in the assay with NCI-H226, 4.27 µM (inactive); in the assay on OVCAR-3, 5.71 µM (inactive).
As for `CCOC(=O)C1=C(O)C(=O)c2ccccc2C1=O`, the GI50 with Malme-3M is 50.6 µM (inactive); in the assay on A498, > 100 µM (inactive); in the assay with MOLT-4, > 100 µM (inactive); in the assay with TK-10 it was > 100 µM (inactive); with HT-29, > 100 µM (inactive); with SK-MEL-28 it was > 100 µM (inactive). The GI50 in the assay with OVCAR-5 was > 100 µM (inactive); in the assay with EKVX, > 100 µM (inactive); in the assay with LOX IMVI, 85.1 µM (inactive); with UO-31 it was > 100 µM (inactive); with CAKI-1 it was > 100 µM (inactive); in the assay with HL-60, > 100 µM (inactive). The GI50 was 40.9 µM (inactive) in the assay on SNB-19, 48.3 µM (inactive) with NCI-H226 and > 100 µM (inactive) with OVCAR-3.
